{
  "source": "patent US20260262643A1",
  "about": "“HERBICIDAL BENZOXAZINES” (FMC CORPORATION, priority 2022, published 2026)",
  "key": {"barnyardgrass [1]": {"tested_on": "barnyardgrass", "assay": "Test C preemergence", "format": "in vivo, Echinochloa crusgalli", "procedure,_shortened": "(§1)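 Visual injury ratings on a 0–100 scale (100 = complete control) were made against untreated controls 10 days after treatment in the greenhouse. Compounds, formulated with surfactant in non-phytotoxic solvent, were sprayed on soil preemergence or onto one- to two-leaf plants 2–10 cm tall postemergence.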"}, "ryegrass, Italian [2]": {"tested_on": "ryegrass, Italian", "assay": "Test C preemergence", "format": "in vivo, Lolium multiflorum", "procedure,_shortened": "as §1"}, "blackgrass [3]": {"tested_on": "blackgrass", "assay": "Test C postemergence", "format": "in vivo, Alopecurus myosuroides", "details": "10 days, 0 to 100 scale (0 no effect, 100 complete control)", "procedure,_shortened": "as §1"}, "soybean [4]": {"tested_on": "soybean", "assay": "Test C preemergence", "format": "in vivo, Glycine max", "procedure,_shortened": "as §1"}, "ragweed [5]": {"tested_on": "ragweed", "assay": "Test C preemergence", "format": "in vivo, Ambrosia artemisiifolia", "procedure,_shortened": "as §1"}, "pigweed, palmer [6]": {"tested_on": "pigweed, palmer", "assay": "Test C preemergence", "format": "in vivo, Amaranthus palmeri", "procedure,_shortened": "as §1"}, "ryegrass, Italian [7]": {"tested_on": "ryegrass, Italian", "assay": "Test C postemergence", "format": "in vivo, Lolium multiflorum", "details": "Postemergence, 125 g ai/ha; 0 to 100 scale (0 no effect, 100 complete control), 10 days", "procedure,_shortened": "as §1"}, "corn [8]": {"tested_on": "corn", "assay": "Test C preemergence", "format": "in vivo, Zea mays", "procedure,_shortened": "as §1"}, "barnyardgrass [9]": {"tested_on": "barnyardgrass", "assay": "Test C postemergence", "format": "in vivo, Echinochloa crusgalli", "details": "10 days, 0 to 100 scale (0 no effect, 100 complete control)", "procedure,_shortened": "as §1"}, "horseweed": {"tested_on": "horseweed", "assay": "Test C postemergence", "format": "in vivo, Erigeron canadensis", "details": "10 days, 0 to 100 scale (0 no effect, 100 complete control)", "procedure,_shortened": "as §1"}, "sedge, umbrella": {"tested_on": "sedge, umbrella", "assay": "Test D flooded paddy test", "format": "in vivo, Cyperus difformis", "details": "250 g ai/ha, applied to paddy water, visual rating after 13 to 14 days, scale 0 to 100 (0 no effect, 100 complete control)", "procedure,_shortened": "(§2)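 At the 2-leaf stage, floodwater 3 cm deep received the test compound; that depth persisted throughout. Plants scored visually 13 to 14 days on, 0 (no effect) to 100 (complete control), dash indicating no result.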"}, "barnyardgrass [10]": {"tested_on": "barnyardgrass", "assay": "Test D flooded paddy test", "format": "in vivo, Echinochloa crus-galli", "details": "250 g ai/ha, applied to paddy water, visual rating after 13 to 14 days, scale 0 to 100 (0 no effect, 100 complete control)", "procedure,_shortened": "as §2"}, "ducksalad": {"tested_on": "ducksalad", "assay": "Test D flooded paddy test", "format": "in vivo, Heteranthera limosa", "details": "250 g ai/ha, applied to paddy water, visual rating after 13 to 14 days, scale 0 to 100 (0 no effect, 100 complete control)", "procedure,_shortened": "as §2"}, "soybean [11]": {"tested_on": "soybean", "assay": "Test C postemergence", "format": "in vivo, Glycine max", "details": "Postemergence, 125 g ai/ha; 0 to 100 scale (0 no effect, 100 complete control), 10 days", "procedure,_shortened": "as §1"}, "wheat [12]": {"tested_on": "wheat", "assay": "Test C preemergence", "format": "in vivo, Triticum aestivum", "procedure,_shortened": "as §1"}, "blackgrass [13]": {"tested_on": "blackgrass", "assay": "Test C preemergence", "format": "in vivo, Alopecurus myosuroides", "procedure,_shortened": "as §1"}, "oat, wild [14]": {"tested_on": "oat, wild", "assay": "Test C preemergence", "format": "in vivo, Avena fatua", "procedure,_shortened": "as §1"}, "wheat [15]": {"tested_on": "wheat", "assay": "Test C postemergence", "format": "in vivo, Triticum aestivum", "details": "Postemergence, 125 g ai/ha; 0 to 100 scale (0 no effect, 100 complete control), 10 days", "procedure,_shortened": "as §1"}, "pigweed, palmer [16]": {"tested_on": "pigweed, palmer", "assay": "Test C postemergence", "format": "in vivo, Amaranthus palmeri", "details": "10 days, 0 to 100 scale (0 no effect, 100 complete control)", "procedure,_shortened": "as §1"}, "oat, wild [17]": {"tested_on": "oat, wild", "assay": "Test C postemergence", "format": "in vivo, Avena fatua", "details": "10 days, 0 to 100 scale (0 no effect, 100 complete control)", "procedure,_shortened": "as §1"}, "green foxtail [18]": {"tested_on": "green foxtail", "assay": "Test C postemergence", "format": "in vivo, Setaria viridis", "details": "10 days, 0 to 100 scale (0 no effect, 100 complete control)", "procedure,_shortened": "as §1"}, "kochia [19]": {"tested_on": "kochia", "assay": "Test C postemergence", "format": "in vivo, Bassia scoparia", "details": "10 days, 0 to 100 scale (0 no effect, 100 complete control)", "procedure,_shortened": "as §1"}, "corn [20]": {"tested_on": "corn", "assay": "Test C postemergence", "format": "in vivo, Zea mays", "details": "10 days, 0 to 100 scale (0 no effect, 100 complete control)", "procedure,_shortened": "as §1"}, "ragweed [21]": {"tested_on": "ragweed", "assay": "Test C postemergence", "format": "in vivo, Ambrosia artemisiifolia", "details": "Postemergence, 125 g ai/ha; 0 to 100 scale (0 no effect, 100 complete control), 10 days", "procedure,_shortened": "as §1"}, "kochia [22]": {"tested_on": "kochia", "assay": "Test C preemergence", "format": "in vivo, Bassia scoparia", "procedure,_shortened": "as §1"}, "green foxtail [23]": {"tested_on": "green foxtail", "assay": "Test C preemergence", "format": "in vivo, Setaria viridis", "procedure,_shortened": "as §1"}, "rice": {"tested_on": "rice", "assay": "Test D flooded paddy test", "format": "in vivo, Oryza sativa", "details": "250 g ai/ha, applied to paddy water, visual rating after 13 to 14 days, scale 0 to 100 (0 no effect, 100 complete control)", "procedure,_shortened": "as §2"}, "[24]": {"details": "500 g ai/ha, preemergence, 0 to 100 scale (0 no effect, 100 complete control)"}, "[25]": {"details": "Preemergence, 125 g ai/ha, 0 to 100 scale, 0 no effect, 100 complete control"}},
  "data": [
    {"smiles": "CCOC[C@H]1CN(C(=O)c2cc(-n3cnc(C(C)(C)C)n3)cc3c2OCO3)c2cccc(Cl)c2O1", "note": "[Compound 401]", "values": [
      {"measurement": "Barnyardgrass plant response rating", "setting": "barnyardgrass [1]; [24]", "result": 70},
      {"measurement": "Plant response rating, Barnyardgrass", "setting": "barnyardgrass [1]; [25]", "result": 30},
      {"measurement": "Ryegrass, Italian plant response rating", "setting": "ryegrass, Italian [2]; [24]", "result": 90},
      {"measurement": "Plant response rating, Ryegrass, Italian", "setting": "ryegrass, Italian [2]; [25]", "result": 70},
      {"measurement": "Plant response rating, Blackgrass", "setting": "blackgrass [3]; 500 g ai/ha, postemergence", "result": 30},
      {"measurement": "Plant response rating, Blackgrass", "setting": "blackgrass [3]; Postemergence, 125 g ai/ha", "result": 10},
      {"measurement": "Soybean plant response rating", "setting": "soybean [4]; [24]", "result": 40},
      {"measurement": "Plant response rating, Soybean", "setting": "soybean [4]; [25]", "result": 0},
      {"measurement": "Ragweed plant response rating", "setting": "ragweed [5]; [24]", "result": 60},
      {"measurement": "Plant response rating, Ragweed", "setting": "ragweed [5]; [25]", "result": 0},
      {"measurement": "Pigweed, Palmer plant response rating", "setting": "pigweed, palmer [6]; [24]", "result": 100},
      {"measurement": "Plant response rating, Pigweed, Palmer", "setting": "pigweed, palmer [6]; [25]", "result": 100},
      {"measurement": "Plant response rating, Ryegrass, Italian", "setting": "ryegrass, Italian [7]", "result": 0},
      {"measurement": "Corn plant response rating", "setting": "corn [8]; [24]", "result": 20},
      {"measurement": "Plant response rating, Corn", "setting": "corn [8]; [25]", "result": 0},
      {"measurement": "Plant response rating, Barnyardgrass", "setting": "barnyardgrass [9]; 500 g ai/ha, postemergence", "result": 20},
      {"measurement": "Plant response rating, Barnyardgrass", "setting": "barnyardgrass [9]; Postemergence, 125 g ai/ha", "result": 10},
      {"measurement": "Plant response rating, Horseweed", "setting": "horseweed; 500 g ai/ha, postemergence", "result": 70},
      {"measurement": "Plant response rating, Horseweed", "setting": "horseweed; Postemergence, 125 g ai/ha", "result": 60},
      {"measurement": "Plant response rating, Sedge, Umbrella (Flood)", "setting": "sedge, umbrella", "result": 0},
      {"measurement": "Plant response rating, Barnyardgrass (Flood)", "setting": "barnyardgrass [10]", "result": 0},
      {"measurement": "Plant response rating, Ducksalad (Flood)", "setting": "ducksalad", "result": 0},
      {"measurement": "Plant response rating, Soybean", "setting": "soybean [11]", "result": 0},
      {"measurement": "Wheat plant response rating", "setting": "wheat [12]; [24]", "result": 20},
      {"measurement": "Plant response rating, Wheat", "setting": "wheat [12]; [25]", "result": 0},
      {"measurement": "Blackgrass plant response rating", "setting": "blackgrass [13]; [24]", "result": 30},
      {"measurement": "Plant response rating, Blackgrass", "setting": "blackgrass [13]; [25]", "result": 30},
      {"measurement": "Oat, Wild plant response rating", "setting": "oat, wild [14]; [24]", "result": 40},
      {"measurement": "Plant response rating, Oat, Wild", "setting": "oat, wild [14]; [25]", "result": 0},
      {"measurement": "Plant response rating, Wheat", "setting": "wheat [15]", "result": 10},
      {"measurement": "Plant response rating, Pigweed, Palmer", "setting": "pigweed, palmer [16]; 500 g ai/ha, postemergence", "result": 90},
      {"measurement": "Plant response rating, Pigweed, Palmer", "setting": "pigweed, palmer [16]; Postemergence, 125 g ai/ha", "result": 100},
      {"measurement": "Plant response rating, Oat, Wild", "setting": "oat, wild [17]; 500 g ai/ha, postemergence", "result": 0},
      {"measurement": "Plant response rating, Oat, Wild", "setting": "oat, wild [17]; Postemergence, 125 g ai/ha", "result": 0},
      {"measurement": "Plant response rating, Foxtail, Green", "setting": "green foxtail [18]; 500 g ai/ha, postemergence", "result": 20},
      {"measurement": "Plant response rating, Foxtail, Green", "setting": "green foxtail [18]; Postemergence, 125 g ai/ha", "result": 10},
      {"measurement": "Plant response rating, Kochia", "setting": "kochia [19]; 500 g ai/ha, postemergence", "result": 100},
      {"measurement": "Plant response rating, Kochia", "setting": "kochia [19]; Postemergence, 125 g ai/ha", "result": 90},
      {"measurement": "Plant response rating, Corn", "setting": "corn [20]; 500 g ai/ha, postemergence", "result": 40},
      {"measurement": "Plant response rating, Corn", "setting": "corn [20]; Postemergence, 125 g ai/ha", "result": 0},
      {"measurement": "Plant response rating, Ragweed", "setting": "ragweed [21]", "result": 60},
      {"measurement": "Kochia plant response rating", "setting": "kochia [22]; [24]", "result": 90},
      {"measurement": "Plant response rating, Kochia", "setting": "kochia [22]; [25]", "result": 0},
      {"measurement": "Foxtail, Green plant response rating", "setting": "green foxtail [23]; [24]", "result": 100},
      {"measurement": "Plant response rating, Foxtail, Green", "setting": "green foxtail [23]; [25]", "result": 20},
      {"measurement": "Plant response rating, Rice (Flood)", "setting": "rice", "result": 0}
    ]}
  ]
}
